Consider 11 compounds from PubChem BioAssay (NCI).

Molecules are shown by their SMILES. Several values for one entry are separate records, joined by “and”; a condition that tells them apart may be missing. Equal values may be shown once.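 1) Cells in 96-well plates. 2) Compound, 48 h, 5 concentrations. 3) Linear interpolation between surrounding doses. 4) Unreached endpoint = highest concentration. GI50 is the concentration that inhibits growth by half. TGI: concentration producing complete growth inhibition.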

Some test systems named below: SNB-75 CNS; SK-MEL-28 melanoma; OVCAR-8 ovarian; OVCAR-3 ovarian; MDA-MB-231 breast; M14 melanoma; U251 CNS; SNB-19 CNS; SK-MEL-5 melanoma; HCT-116 colon.
Common to all, as to experiment: DTP human tumour cell line panel, 48 h

Take `COc1ccc(C(=O)/C=C/c2sc(Cl)nc2Cl)cc1`: the GI50 was 2.56 µM with SNB-75 CNS; 2.57 µM in the assay on SK-MEL-28 melanoma; 1.05 µM in the assay with OVCAR-8 ovarian; 1.84 µM in the assay on OVCAR-3 ovarian; 1.33 µM in the assay on MDA-MB-231 breast; 0.466 µM with M14 melanoma. Further, the GI50 in the assay on U251 CNS was 1.68 µM; in the assay with SNB-19 CNS, 1.99 µM; in the assay with SK-MEL-5 melanoma it was 1.53 µM; with HCT-116 colon, 0.49 µM. Moreover, the TGI in the assay with SNB-75 CNS was determined as 8.29 µM; with SK-MEL-28 melanoma, 8.17 µM; with OVCAR-8 ovarian, 13.9 µM; in the assay on OVCAR-3 ovarian, 3.48 µM; in the assay with MDA-MB-231 breast, 4.64 µM; with M14 melanoma, 2.96 µM. The TGI in the assay on U251 CNS came to 3.83 µM; in the assay with SNB-19 CNS, 4.25 µM; in the assay with SK-MEL-5 melanoma, 4.15 µM; in the assay with HCT-116 colon, 1.84 µM.
With `CNC(=O)c1cc(Oc2ccc3nc(NC(=O)Nc4ccc(CN5CCOCC5)c(C(F)(F)F)c4)sc3c2)ccn1`, the GI50 with SNB-75 CNS was 1.74 µM; with SK-MEL-28 melanoma it was 1.8 µM; in the assay on OVCAR-8 ovarian, 2.63 µM; in the assay on OVCAR-3 ovarian it was 1.79 µM; with MDA-MB-231 breast, 2.14 µM; with M14 melanoma, 2.48 µM. Also, the GI50 in the assay on U251 CNS was 1.77 µM; in the assay on SNB-19 CNS it was 3.82 µM; in the assay on SK-MEL-5 melanoma it was 1.01 µM; in the assay with HCT-116 colon it was 1.78 µM. For the same compound, the TGI came out at 4.95 µM in the assay with SNB-75 CNS; 4.29 µM in the assay on SK-MEL-28 melanoma; 7.71 µM in the assay on OVCAR-8 ovarian; 4.16 µM in the assay on OVCAR-3 ovarian; 5.8 µM in the assay on MDA-MB-231 breast; 6.53 µM with M14 melanoma. Also, the TGI with U251 CNS worked out at 3.54 µM; with SNB-19 CNS, 16.4 µM; with SK-MEL-5 melanoma, 2.22 µM; in the assay on HCT-116 colon it was 3.62 µM.
In the case of `O=C(O)C1C2C=CC(O2)C1C(=O)NCc1cccnc1` (stereo not given), the TGI in the assay on SNB-75 CNS, in the assay on SK-MEL-28 melanoma, with OVCAR-8 ovarian, in the assay with OVCAR-3 ovarian, in the assay on MDA-MB-231 breast and in the assay on M14 melanoma was more than 100 µM in each case. Also, the TGI in the assay on U251 CNS, with SNB-19 CNS, with SK-MEL-5 melanoma and in the assay on HCT-116 colon was more than 100 µM in each case.
With `COc1cc2c(Oc3ccc(NC(=O)C4(C(=O)Nc5ccc(F)cc5)CC4)cc3F)ccnc2cc1OCCCN1CCOCC1`, the GI50 is 0.175 µM and 0.15 µM in the assay with SNB-75 CNS; 1.12 µM and 1.25 µM with SK-MEL-28 melanoma; 1.42 µM and 2.08 µM in the assay with OVCAR-8 ovarian; 1.46 µM and 2.25 µM in the assay on OVCAR-3 ovarian; 1.33 µM and 1.28 µM in the assay with MDA-MB-231 breast; 0.479 µM and 0.54 µM with M14 melanoma. The GI50 in the assay with U251 CNS is 1.42 µM; in the assay on SNB-19 CNS, 1.99 µM and 2.14 µM; in the assay with SK-MEL-5 melanoma, 1.37 µM and 1.39 µM; with HCT-116 colon, 0.609 µM and 0.586 µM. Besides, the TGI with SNB-75 CNS was 1.88 µM and 2.16 µM; in the assay with SK-MEL-28 melanoma it was 2.47 µM and 2.69 µM; with OVCAR-8 ovarian it was 4 µM and > 10 µM; in the assay with OVCAR-3 ovarian, 3.36 µM and > 10 µM; in the assay on MDA-MB-231 breast, 2.72 µM and 2.74 µM; with M14 melanoma it was 1.83 µM and 1.96 µM. The TGI is 3.32 µM with U251 CNS; 5.77 µM and > 10 µM with SNB-19 CNS; 2.68 µM and 2.71 µM in the assay on SK-MEL-5 melanoma; 2.02 µM and 2.06 µM in the assay on HCT-116 colon.
As for `Cc1ccc2c(c1)[n+](=O)c(C(=O)c1cccs1)c(C(F)(F)F)n2[O-]`, the GI50 in the assay with SNB-75 CNS is 2.86 µM; in the assay on SK-MEL-28 melanoma, 5.31 µM and 2.91 µM; with OVCAR-8 ovarian, 1.67 µM and 0.247 µM; with OVCAR-3 ovarian, 0.923 µM and 0.163 µM; in the assay on MDA-MB-231 breast, 1.01 µM and 1.08 µM; with M14 melanoma, 2.99 µM and 4.32 µM. The GI50 is 1.6 µM and 0.906 µM in the assay on U251 CNS; 2.24 µM and 3.91 µM with SNB-19 CNS; 0.648 µM and 0.177 µM in the assay with SK-MEL-5 melanoma; 2.47 µM and 0.731 µM in the assay on HCT-116 colon. Also, the TGI in the assay on SNB-75 CNS was 17.3 µM; in the assay on SK-MEL-28 melanoma it was 50 µM and 22.6 µM; in the assay with OVCAR-3 ovarian, 2.6 µM and 0.979 µM; in the assay on MDA-MB-231 breast it was 2.8 µM and 6.37 µM; in the assay on M14 melanoma it was 50 µM and 26.2 µM; in the assay on U251 CNS, 10.1 µM and 14.3 µM. Further, the TGI in the assay with SNB-19 CNS is 11.2 µM and 17.8 µM; in the assay with SK-MEL-5 melanoma, 1.57 µM and 0.423 µM; in the assay with HCT-116 colon it was 50 µM and 15.9 µM.
For the compound `COc1ccccc1-n1cnc(N)c1C(=O)c1cc(OC)c(OC)c(OC)c1`, the GI50 with SNB-75 CNS is 2.3 µM; with SK-MEL-28 melanoma, 9.62 µM; in the assay on OVCAR-8 ovarian it was 5.85 µM; in the assay with OVCAR-3 ovarian it was 3.34 µM; in the assay with MDA-MB-231 breast it was 5.93 µM; in the assay with M14 melanoma it was 3.5 µM. In addition, the GI50 in the assay with U251 CNS was 3.74 µM; in the assay with SNB-19 CNS, 4 µM; in the assay on SK-MEL-5 melanoma it was 3.13 µM; in the assay on HCT-116 colon, 4.95 µM. Further, the TGI in the assay on SNB-75 CNS was 9.3 µM; in the assay on SK-MEL-28 melanoma, more than 100 µM; in the assay with OVCAR-8 ovarian, more than 100 µM; in the assay on OVCAR-3 ovarian, 19.3 µM; in the assay with MDA-MB-231 breast it was more than 100 µM; with M14 melanoma it was more than 100 µM. In addition, the TGI in the assay with U251 CNS, with SNB-19 CNS, with SK-MEL-5 melanoma and in the assay on HCT-116 colon was more than 100 µM throughout.
Turning to `O=CC(OC(=O)c1ccccc1)C(OC(=O)c1ccccc1)C(COC(c1ccccc1)(c1ccccc1)c1ccccc1)OC(=O)c1ccccc1` (stereo not given), the GI50 with SNB-75 CNS is 10.2 µM; with SK-MEL-28 melanoma, 13.5 µM; in the assay with OVCAR-8 ovarian, 4.76 µM; with OVCAR-3 ovarian, 11 µM; in the assay with MDA-MB-231 breast it was 21.6 µM; in the assay with M14 melanoma, 14 µM. The GI50 in the assay on U251 CNS is 7.51 µM; with SNB-19 CNS it was 15.3 µM; in the assay on SK-MEL-5 melanoma, 15.4 µM; with HCT-116 colon, 6.21 µM. The TGI in the assay with SNB-75 CNS is 22.9 µM; in the assay with SK-MEL-28 melanoma, 28.3 µM; in the assay with OVCAR-8 ovarian it was 54.1 µM; with OVCAR-3 ovarian, 24.1 µM; in the assay with MDA-MB-231 breast, more than 100 µM; with M14 melanoma, 30.3 µM. Further, the TGI in the assay on U251 CNS worked out at 20.2 µM; in the assay with SNB-19 CNS, 28.6 µM; in the assay on SK-MEL-5 melanoma, 30.3 µM; in the assay on HCT-116 colon, 19 µM.
With `O=C(COc1ccc(/C=C2\Oc3ccc4ccccc4c3C2=O)cc1)c1ccc([N+](=O)[O-])cc1`, the GI50 with SNB-75 CNS was 1.47 µM; with SK-MEL-28 melanoma, 19.4 µM; with OVCAR-8 ovarian, 4.88 µM; in the assay on OVCAR-3 ovarian, 4.59 µM; in the assay on MDA-MB-231 breast, 19 µM; in the assay with M14 melanoma it was 12.1 µM. Also, the GI50 in the assay with U251 CNS is 13.1 µM; with SNB-19 CNS, 15.6 µM; in the assay on SK-MEL-5 melanoma it was 13.2 µM; in the assay on HCT-116 colon, 3.03 µM. Moreover, the TGI with SNB-75 CNS is 13.6 µM; in the assay with SK-MEL-28 melanoma, 40.2 µM; in the assay with OVCAR-8 ovarian, 23.2 µM; in the assay on OVCAR-3 ovarian, 17.4 µM; in the assay with MDA-MB-231 breast it was 71.9 µM; in the assay on M14 melanoma it was 40.6 µM. Also, the TGI in the assay with U251 CNS was found to be 25.8 µM; in the assay on SNB-19 CNS, 35.6 µM; in the assay with SK-MEL-5 melanoma, 28.9 µM; in the assay with HCT-116 colon, 13.8 µM.
On to `CC(=O)N[C@H](C)[C@@H](O)[C@@H](C)[C@@H]1OC(=O)/C=C/C=C(C)\C=C\[C@]2(C)C[C@@H](NS(C)(=O)=O)C=C[C@@H]2/C=C(C)/C=C/[C@H]1C`, for which the GI50 was 0.00177 µM and 0.00888 µM in the assay on SNB-75 CNS; 0.008 µM and 0.0222 µM in the assay with SK-MEL-28 melanoma; 0.017 µM in the assay with OVCAR-8 ovarian; 0.00125 µM and 0.0046 µM in the assay with MDA-MB-231 breast; 0.00309 µM in the assay on M14 melanoma; 0.00368 µM and 0.00435 µM with U251 CNS. Moreover, the GI50 is 0.039 µM and 0.0228 µM with SNB-19 CNS; 0.00313 µM and 0.00786 µM in the assay with SK-MEL-5 melanoma; 0.00172 µM and 0.00435 µM in the assay on HCT-116 colon. Besides, the TGI with SK-MEL-28 melanoma was more than 43.5 µM; in the assay on OVCAR-8 ovarian, more than 43.5 µM; in the assay with OVCAR-3 ovarian it was more than 43.5 µM; with U251 CNS, more than 43.5 µM; in the assay on SNB-19 CNS, more than 43.5 µM; in the assay with SK-MEL-5 melanoma, 0.0151 µM and 0.0256 µM. Also, in the assay on HCT-116 colon, the TGI was more than 43.5 µM.
As to `O=C1Cc2c(-c3ccccc3)cc(-c3ccccc3)nc2-c2ccccc2N1`, the TGI with SNB-75 CNS was 7.71 µM; in the assay with SK-MEL-28 melanoma it was 83.7 µM; in the assay with OVCAR-8 ovarian it was 21 µM; in the assay on OVCAR-3 ovarian, 21.4 µM; in the assay with MDA-MB-231 breast, 17.2 µM; in the assay with M14 melanoma it was 17.5 µM. Besides, the TGI with U251 CNS worked out at 20 µM; in the assay on SNB-19 CNS, 8.76 µM; in the assay with SK-MEL-5 melanoma it was 7.58 µM; in the assay with HCT-116 colon, 5.37 µM.
With `C[C@@H](Nc1nc(N[C@H](C)C(F)(F)F)nc(-c2cccc(Cl)n2)n1)C(F)(F)F`, the GI50 was 15.8 µM in the assay on SNB-75 CNS; 72.5 µM in the assay with SK-MEL-28 melanoma; 31.3 µM with OVCAR-8 ovarian; 31.5 µM with OVCAR-3 ovarian; 26.8 µM in the assay on MDA-MB-231 breast; more than 100 µM with M14 melanoma. Besides, the GI50 in the assay with U251 CNS was 20.8 µM; in the assay on SNB-19 CNS, 23.3 µM; with SK-MEL-5 melanoma, 51.2 µM; with HCT-116 colon, 59.4 µM. Also, the TGI with SNB-75 CNS was 44.3 µM; in the assay on SK-MEL-28 melanoma, more than 100 µM; in the assay with OVCAR-8 ovarian, more than 100 µM; with OVCAR-3 ovarian it was more than 100 µM; with MDA-MB-231 breast, more than 100 µM; with M14 melanoma it was more than 100 µM. Moreover, the TGI was 54 µM in the assay with U251 CNS, 63.5 µM with SNB-19 CNS, more than 100 µM in the assay with SK-MEL-5 melanoma and more than 100 µM in the assay on HCT-116 colon.
